This is an account of results in ChEMBL document CHEMBL1127459, “Synthesis and biological activity of 3-[2-(dimethylamino)ethyl]-5-[(1,1-dioxo-5-methyl-1,2,5-thiadiazolidin- 2-yl)-methyl]-1H-indole and analogues: agonists for the 5-HT1D receptor” (J Med Chem, 1994).

Molecules are shown by their SMILES. pEC50, pIC50: −log10 of the molar value.

The target in series [1] is 5-hydroxytryptamine receptor 1D (Sus scrofa, UniProt P79400). The series is described as follows: Displacement of [3H]5-HT binding to 5-hydroxytryptamine 1D receptor from pig caudate membrane. In general terms: Displacement assays read how much labelled ligand stays bound in the presence of the test substance.
Chain of 5-hydroxytryptamine receptor 1D (P79400 whole entry): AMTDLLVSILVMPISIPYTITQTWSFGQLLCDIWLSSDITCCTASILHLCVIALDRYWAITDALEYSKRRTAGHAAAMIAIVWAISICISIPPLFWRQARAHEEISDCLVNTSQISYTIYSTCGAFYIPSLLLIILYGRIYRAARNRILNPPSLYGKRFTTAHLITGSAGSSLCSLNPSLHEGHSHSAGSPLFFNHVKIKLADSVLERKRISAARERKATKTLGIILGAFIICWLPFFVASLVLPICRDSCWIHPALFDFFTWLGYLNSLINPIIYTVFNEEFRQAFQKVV
Series [2] deals with 5-hydroxytryptamine receptor 2A (Rattus norvegicus, UniProt P14842). The series can be described thus: Displacement of [3H]DOB binding to 5-hydroxytryptamine 2A receptor from rat cortex homogenate.
Chain of 5-hydroxytryptamine receptor 2A (P14842 whole entry): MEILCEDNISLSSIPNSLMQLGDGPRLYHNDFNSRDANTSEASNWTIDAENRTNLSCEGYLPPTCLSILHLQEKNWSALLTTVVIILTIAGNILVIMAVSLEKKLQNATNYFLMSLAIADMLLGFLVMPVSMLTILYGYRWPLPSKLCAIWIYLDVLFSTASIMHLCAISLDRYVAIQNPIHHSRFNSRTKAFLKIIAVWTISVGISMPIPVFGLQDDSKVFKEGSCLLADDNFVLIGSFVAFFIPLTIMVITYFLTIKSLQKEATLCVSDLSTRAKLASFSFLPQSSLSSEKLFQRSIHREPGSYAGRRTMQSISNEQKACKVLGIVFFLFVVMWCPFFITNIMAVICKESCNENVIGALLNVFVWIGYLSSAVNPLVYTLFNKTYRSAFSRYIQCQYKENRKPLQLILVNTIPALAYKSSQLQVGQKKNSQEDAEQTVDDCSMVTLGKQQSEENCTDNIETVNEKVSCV
Series [3] deals with 5-HT1A receptor (Sus scrofa, UniProt A0A4X1UTF5). The series is described as follows: Displacement of [3H]8-OH-DPAT binding to 5-hydroxytryptamine 1A receptor from pig cortex.
For series [4], the species on record is Oryctolagus cuniculus. The series can be described thus: Ability to contract saphenous vein of New Zealand white rabbit. The format is functional.
A short description of series [5]: Partition coefficient at pH 7.4. Type of series: physicochemical. To be noted: octanol/water.
The species entered for series [6] is Oryctolagus cuniculus. The series is described as follows: Ability to contract saphenous vein of New Zealand white rabbit. Type of series: functional.
The target in series [7] is T1, Serotonin 3 (5-HT3) receptor (Rattus norvegicus, UniProt P35563+Q9JJ16).
T1 sequence (P35563 whole entry): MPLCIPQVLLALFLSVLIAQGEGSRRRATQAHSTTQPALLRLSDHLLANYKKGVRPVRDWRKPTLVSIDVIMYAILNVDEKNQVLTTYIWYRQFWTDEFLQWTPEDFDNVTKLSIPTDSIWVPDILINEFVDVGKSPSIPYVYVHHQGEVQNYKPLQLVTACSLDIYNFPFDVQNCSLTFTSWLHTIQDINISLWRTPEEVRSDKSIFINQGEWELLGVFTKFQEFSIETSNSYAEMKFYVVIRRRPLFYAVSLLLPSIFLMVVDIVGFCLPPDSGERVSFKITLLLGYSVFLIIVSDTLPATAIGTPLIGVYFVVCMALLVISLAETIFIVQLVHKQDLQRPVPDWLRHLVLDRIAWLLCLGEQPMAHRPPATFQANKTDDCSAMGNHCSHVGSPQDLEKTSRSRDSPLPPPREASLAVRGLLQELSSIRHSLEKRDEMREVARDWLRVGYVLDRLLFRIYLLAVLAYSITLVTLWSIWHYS
T1 sequence (Q9JJ16 whole entry): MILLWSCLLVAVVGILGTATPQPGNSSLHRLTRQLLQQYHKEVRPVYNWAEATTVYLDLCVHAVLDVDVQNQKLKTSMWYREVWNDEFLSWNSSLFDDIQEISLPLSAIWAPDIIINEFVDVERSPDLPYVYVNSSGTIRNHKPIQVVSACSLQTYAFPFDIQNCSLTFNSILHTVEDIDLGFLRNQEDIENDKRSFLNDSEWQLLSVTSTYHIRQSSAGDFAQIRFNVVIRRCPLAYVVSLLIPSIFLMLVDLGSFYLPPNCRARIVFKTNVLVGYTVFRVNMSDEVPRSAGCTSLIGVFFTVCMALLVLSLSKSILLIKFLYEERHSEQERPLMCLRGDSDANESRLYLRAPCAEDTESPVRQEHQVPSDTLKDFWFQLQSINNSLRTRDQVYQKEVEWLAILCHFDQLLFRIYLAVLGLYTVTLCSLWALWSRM
The series is described as follows: Displacement of [3H]-Q-ICS 205-930 binding to 5-hydroxytryptamine 3 receptor from rat cortex homogenate.

As to `CN(C)CCc1c[nH]c2ccc(N3CCN(Cc4ccccc4)S3(=O)=O)cc12`, the pIC50 in series [1] is 7.70; in series [2] it was 5.30; in series [3], 7.10.

With `CN(C)CCc1c[nH]c2ccc(CN3CCNS3(=O)=O)cc12`, the pIC50 in series [1] is 7.00; in series [2], less than 5.00; in series [3], 6.10. The pEC50 in series [4] is 5.60. In series [5], this compound came in with a logD of -0.97.

On to `CNCCc1c[nH]c2ccc(CN3CCN(C)S3(=O)=O)cc12`, for which the values for the pIC50 in series [1], in series [2] and in series [3] were 7.00, less than 5.00 and 6.10, respectively. The logD in series [5] was -1.71. In series [6], this compound gave a pEC50 of 5.70.

With `CN(C)CCc1c[nH]c2ccc(CN3C(C)(C)CNS3(=O)=O)cc12`, the pIC50 in series [1] is 6.70; in series [2], less than 5.00; in series [3] it was 6.00. The logD in series [5] is -0.78. For the same compound, in series [6], the pEC50 is 5.20.

For `CN(C)CCc1c[nH]c2ccc(CN3CCN(C)S3(=O)=O)cc12`, the negative-log IC50 (pIC50) in series [7] is less than 5.00; in series [1], 7.20; in series [2] it was less than 5.00; in series [3], 6.10. The pEC50 in series [4] was 6.20. This compound also showed a logD in series [5] of -0.68.

As for `CN(C)CCc1c[nH]c2ccc(CCN3CCN(C)S3(=O)=O)cc12`, the pIC50 was 7.40 in series [1], 5.60 in series [2] and 6.70 in series [3]. The same compound registered a logD in series [5] of -0.57. Besides, the negative logarithm of the EC50 (pEC50) in series [6] is 5.80.

On to `CC(=O)Nc1ccc(CN2CCN(Cc3ccc4[nH]cc(CCN(C)C)c4c3)S2(=O)=O)cc1`, for which the negative-log IC50 (pIC50) in series [1] is 7.70; in series [2], 5.10; in series [3] it was 6.70. Besides, in series [5], the logD is 0.42. This compound gave a pEC50 in series [6] of 6.30.

As to `CN(C)CCc1c[nH]c2ccc(CCN3CCNS3(=O)=O)cc12`, the pIC50 is 7.40 in series [1], 5.30 in series [2] and 6.90 in series [3].

Consider `CN1CCN(Cc2ccc3[nH]cc(CCN)c3c2)S1(=O)=O`, for which the pIC50 in series [1] is 6.50; in series [2] it was less than 5.00; in series [3] it was 6.20.

On to `CNS(=O)(=O)Cc1ccc2[nH]cc(CCN(C)C)c2c1`, for which the pIC50 in series [7] is less than 5.00; in series [3] it was 6.30.

With `CN1CCN(Cc2ccc3scc(CCN)c3c2)S1(=O)=O`, the pIC50 in series [1] was 6.40; in series [2] it was 5.70; in series [3], 5.70. The pEC50 in series [4] is 4.90.

For `CC(C)N1CCN(Cc2ccc3[nH]cc(CCN(C)C)c3c2)S1(=O)=O`, the pIC50 was 7.00 in series [1], less than 5.00 in series [2] and 6.30 in series [3]. Besides, the logD in series [5] worked out at 0.16.

Take `CN(C)CCc1c[nH]c2ccc(N3CCN(C)S3(=O)=O)cc12`: the pIC50 is 7.00 in series [1], less than 5.00 in series [2] and 6.20 in series [3]. This compound showed a pEC50 in series [4] of 5.50. In series [5], this compound yielded a logD of -0.92.

Regarding `CN(C)CCc1c[nH]c2ccc(CN3CC(C)(C)NS3(=O)=O)cc12`, the pIC50 is 7.00 in series [1], less than 5.00 in series [2] and 6.60 in series [3]. In series [5], this compound registered a log distribution coefficient (logD) of -0.39. In series [6], this compound showed a pEC50 of 5.60.

Consider `CCN1CCN(CCc2ccc3[nH]cc(CCN(C)C)c3c2)S1(=O)=O`, for which the results for the pIC50 in series [1], in series [2] and in series [3] were 7.40, 5.70 and 6.90, respectively. Also, the pEC50 in series [4] is 5.80.

In the case of `CN(C)CCc1c[nH]c2ccc(CN3CCCN(C)S3(=O)=O)cc12`, the pIC50 in series [7] was less than 5.00; in series [1], 7.20; in series [2] it was less than 5.00; in series [3], 6.90. Further, in series [5], the logD is -0.02. The pEC50 in series [6] is 5.60.

A word on the pIC50: it is the IC50 on a negative log10 scale, so that one unit is a factor of ten. Broadly, the pEC50 is the negative decadic logarithm of the EC50, by convention in mol/L. A low value points to a high EC50. The term logD denotes the decadic logarithm of the distribution of all forms, ionised or not, between an organic phase and buffer at a given pH. A high value points to a more lipophilic compound.
